# Data published in patent US8076449B2, “Therapeutic agents of colivelin for neurodegenerative diseases” (Tomohiro Chiba, priority 2004, dated 2011).
# “Also recorded” adds a separate entry of the source. Ends that are not written are not given here.
# Experiments:
# G93A-SOD1 Tg mice = assay: Motor performance (rotarod), onset and survival test with ALS model animal, icv administration (Example 3); format: in vivo, mouse
# Text: Transgenic (Tg) mice (hereinafter, referred to as “G93A-SOD1 Tg mice”) expressing human FALS-associated SOD1 mutant gene with a mutation (G93A) from Gly to Ala at 93 position are the best-established mouse model of ALS (Gurney M E, et al., 1994, Science 264: 1772-1775; and Gurney M E, et al., 1997, J Neurol Sci 152 Suppl 1: S67-73). The G93A-SOD1 Tg mice manifest symptoms quite similar to human ALS after normal birth and rapidly result in death in all cases. The G93A-SOD1 Tg mice, which have the onset of the regression of motor neurons similar clinically and pathologically to that in human ALS, have been known so far to be the most excellent model of ALS throughout the world and employed for identifying effective candidate drugs for ALS patients.
# The model mice were used to confirm the in vivo effect of colivelin against neurotoxicity caused by G93A-SOD1.
# The G93A-SOD1 Tg mice were purchased from Jackson Laboratories (Bar Harbor, Me.). The G93A-SOD1 Tg mice were kept as hemizygote mice by the mating thereof with C57BL/6J mice (CLEA Japan, Inc). The mice were raised in an SPF room (specific pathogen-free animal facility; 23±1° C., 55±5% humidity) in the 12-hour light/12-hour dark cycle (7:00 AM-7:00 PM). The mice were freely fed with gamma ray-irradiated Picolab Rodent Diet 20 (PMI Feeds Inc. St. Louis, Mo.) and sodium hyposulfite (5 ppm)-containing aseptic deionized distilled water.
# The G93A-SOD1 Tg mice at 10 weeks of age were put under anesthesia by the intraperitoneal injection of 10% Nembutal (sodium pentobarbital; 60 mg/kg). A hole was made on the cranial bone with a drill on a sterotaxic surgery apparatus to aseptically transplant the C315GS-4 cannula system for mouse (Plastics One Inc., Roanoke, Va.) to the mouse left lateral ventricle. The cannula was fixed with a surgical adhesive and dental cement.
# The mice at 80 days of age were divided at random to a saline (control)-administered group (n=7), 100 fmol colivelin-administered group (n=6), 10 pmol colivelin-administered group (n=7), 1 nmol colivelin-administered group (n=7), and 30 nmol ADNF-administered group (n=5). Until the end of the experiment, the control group received the intracerebroventricular (icv) injection of 3 μl of saline each day, while the colivelin-administered groups and the ADNF-administered group received the icy injection of 3 μl of colivelin (100 f mol, 10 pmol, or 1 nmol) and 3 μI of 30 nmol ADNF, respectively. In this context, colivelin and ADNF were separately dissolved in a saline for the injection. The injection was performed with the cannula in C315IS-4 connected to Hamilton syringe through a cannula tube (C232, PESO/Thin wall, Plastic One).
# The motor function (motor performance) was evaluated weekly with a rotarod (CLEA Japan Inc). After the cannulation, the mice were acclimated to the rotarod for 2 days. The mice were placed onto a rotating rod at a speed of 5 rpm, and the time for which each mouse could remain on the rod was automatically detected. The test was conducted according to the protocol wherein the test was completed as a score of 7 minutes if the mouse remained on the rod for 7 minutes (Li M, et al., 2000, Science 288: 335-339; and Kaspar B K, et al., 2003, Science 301: 839-842). Disease onset was defined as the first day when the mouse could not remain on the rotarod for 7 minutes.
# Death was defined when the mouse was unable to right itself within 30 seconds after being placed on its back (Li M, et al., op. cit).
# [1] = tested on: F11 cells transformed with G93R-SOD1; assay: Neuronal cell death induced by G93R-SOD1 gene, Trypan blue exclusion assay; format: cell-based, rat/mouse hybrid
# Experimental: (§1) F11 cell, the hybrid cell of rat embryonic day 13 (E13) primary cultured neuronal cell with mouse neuroblastoma NTG18 cell, was cultured in Ham's F-12 medium (Life Technologies, Gaithersburg, Md.) containing 18% FBS (Hyclone, Logan, Utah) and antibiotics as previously reported (Platika D, et al., 1985, Proc Natl Acad Sci USA 82: 3499-3503; Yamatsuji T, et al., 1996, Science 272: 1349-1352; Huang P, et al., 2000, Mol Hum Reprod 6: 1069-1078; and Niikura T, et al., 2001, J Neuroscience, 21: 1902-1910).
# (§2) (i) Test of Neuronal Cell Death Induced by M146L-PS1 or G93R-SOD1 Gene
# The F11 cells (7×10^4 cells/well, 6-well plate, 12- to 16-hour culture in Ham's F-12 (18% FBS) medium) were transformed with M146L-PS1 or G93R-SOD1 gene by lipofection (0.5 μg of cDNA; 1 μl of LipofectAMINE; 2 μl of PLUS Reagent) under serum-free conditions for 3 hours and cultured for 2 hours in Ham's F-12 (18% FBS) medium. […] After 72 hours of the transformation, cell mortality was measured by Trypan blue exclusion assay as previously reported (Hashimoto Y, et al., 2001, J Neurosci 21: 9235-9245; and Hashimoto Y, et al, 2001, Proc Natl Acad Sci USA 98: 6336-6341).
# ADNF has already been reported to protect neurons from toxicity caused by SOD1 mutations. […] After 72 hours of the transformation, cell mortality was measured by Trypan blue exclusion assay (FIG. 3).
# [2] = tested on: F11 cells transformed with M146L-PS1; assay: Neuronal cell death induced by M146L-PS1 gene, Trypan blue exclusion assay; format: cell-based, rat/mouse hybrid; details: M146L-PS1, 72 hours after transformation
# Experimental: as §1, §2
# The F11 cells (7×10^4 cells/well, 6-well plate, 12- to 16-hour culture in Ham's F-12 (18% FBS) medium) were transformed with M146L-PS1 or G93R-SOD1 gene by lipofection (0.5 μg of cDNA; 1 μl of LipofectAMINE; 2 μl of PLUS Reagent) under serum-free conditions for 3 hours and cultured for 2 hours in Ham's F-12 (18% FBS) medium. The medium was replaced by Ham's F-12 (10% FBS) in the presence or absence of varying concentrations (100 aM, 1 fM, 10 fM, 100 fM, 1 pM, 10 pM, 100 pM, 1 nM, 10 nM, or 100 nM) of colivelin or AGA-CBR-HNG17 peptides. After 72 hours of the transformation, cell mortality was measured by Trypan blue exclusion assay as previously reported (Hashimoto Y, et al., 2001, J Neurosci 21: 9235-9245; and Hashimoto Y, et al, 2001, Proc Natl Acad Sci USA 98: 6336-6341). […]
# [3] = 100 fmol colivelin icv each day
sequence,measurement,setting,value
"SALLRSIPA [ADNF, reference compound]",mean survival days,G93A-SOD1 Tg mice; 30 nmol ADNF icv each day,145.0 days
same,time up to which motor function was maintained (rotarod),G93A-SOD1 Tg mice; 30 nmol ADNF icv each day,approximately 130 days
"PAGASRLLLLTGEIDLP [AGA-C8R-HNG17, Pro-Ala-Gly-Ala-Ser-Arg-Leu-Leu-Leu-Leu-Thr-Gly-Glu-Ile-Asp-Leu-Pro, reference compound]",neuroprotective effect on cell death induced by SOD1 mutant,[1]; varying concentrations 100 aM to 100 nM,could not protect; also recorded: not observed
same,concentration of complete protection against cell death induced by mutant PS1,[2],10 pM
SALLRSIPAPAGASRLLLLTGEIDLP [colivelin],concentration completely suppressing cell death induced by G93R-SOD1,[1]; 72 hours after transformation,1 pM
same,concentration completely suppressing cell death induced by mutant PS1,[2],100 fM
same,mean survival days,G93A-SOD1 Tg mice; 10 pmol colivelin icv each day,159.4 days
same,prolongation of life span,"G93A-SOD1 Tg mice; 10 pmol colivelin icv each day, versus control",11.7%
same,delay of the disease onset,G93A-SOD1 Tg mice; 1 nmol colivelin icv each day,approximately 17 day
same,mean survival days,G93A-SOD1 Tg mice; 1 nmol colivelin icv each day,156.7 days
same,protective action on motor function (rotarod),G93A-SOD1 Tg mice; 1 nmol colivelin icv each day,most potent protective action
same,mean survival days,G93A-SOD1 Tg mice; [3],153.3 days
same,time of deterioration of motor function (rotarod),G93A-SOD1 Tg mice; [3],approximately 120 days
same,recovery of motor function,G93A-SOD1 Tg mice; experiments using ALS model mice (summary statement),approximately 70%
